Reference: patent publication US10662174B2, “BTK inhibitor” (Hubei Bio-Pharmaceutical Industrial Technological Institute …, priority 2015, dated 2020)

These molecules were tested against T1, BTK kinase (Homo sapiens, UniProt Q06187) (assay: Assay of inhibition activity of BTK in vitro (HTRF kit, read on Envision)). Conditions: not given.
T1 construct: purchased Invitrogen PR5442A
Type: biochemical
Description: Assay of Inhibition Activity of BTK In Vitro
The inhibition of compounds on BTK kinase was evaluated by […] detected by Envision, using the IC50 value of the compounds as index.
BTK kinase: Invitrogen-PR5442A
HTRF Assay Kit: Cisbio-62TKOPEJ
Plate for compound preparation: Greiner-781280
Cisbio HTRF Kit: Cisbio-62TKOPEJ
Centrifuge: Eppendorf-5810R
Bravo: Agilent Technologies-Bravo
Gradient Dilution of Compounds: […]
The test compound was dissolved with DMSO to be of 1 mM as a stock solution. Such a stock solution was diluted with DMSO by 10-fold, thereby obtaining an initial solution in a concentration of […] which was added into wells at the second column in a plate. 20 μL DMSO was added to other wells using Bravo. Then, 10 μL of the initial solution was transferred from wells at the second column to wells at the third column, followed by mixing obtained solution in the wells at the third column, thereby obtain a first diluted solution in a concentration of 1/3 μM. Subsequently, 10 μL of the first diluted solution was further transferred from wells at the third column to wells at the fourth column, followed by mixing obtained solution in the wells at the fourth column, thereby obtain a second diluted solution in a concentration of 1/9 μM. Such a three-fold serial dilution was performed 10 times, with 11 solutions in series diluted concentrations and a final diluted solution in a concentration of 0.017 nM obtained.
All diluted solutions were further diluted by 25-fold with ultrapure water, thus obtain test solutions, which were equilibrated at r.t. for 30 min before use.
To 2.5 μL of test solution, which was pipetted into each well of Assay plate using Bravo, 5 μL kinase mixture was added using the multi-channel pipettor. The mixture was centrifuged at 1000 rpm for 20 s, followed by incubation at 23° C. for 30 min. The reaction was initiated by 2.5 μL ATP mixture which was pipetted into the wells by Multidrop.
The reaction mixture of BTK kinase (10 μL) included 1.0 nM BTK, 1 μM biotin-TK1 peptide and 20 μM ATP. The reaction buffer included 50 mM Hepes (pH7.5), 10 mM MgCl2 and 0.01 mM […]. The kinase mixture was reacted in incubator at 23° C. for 90 mim.
The reaction was stopped by adding 10 μL Detection Reagent to each well of Assay plate, and the plate was left in incubator at 23° C. for 1 h before read on Envision.
Data analysis: The IC50 values of compounds were calculated using Excel fit.

T1 sequence (Q06187 whole entry): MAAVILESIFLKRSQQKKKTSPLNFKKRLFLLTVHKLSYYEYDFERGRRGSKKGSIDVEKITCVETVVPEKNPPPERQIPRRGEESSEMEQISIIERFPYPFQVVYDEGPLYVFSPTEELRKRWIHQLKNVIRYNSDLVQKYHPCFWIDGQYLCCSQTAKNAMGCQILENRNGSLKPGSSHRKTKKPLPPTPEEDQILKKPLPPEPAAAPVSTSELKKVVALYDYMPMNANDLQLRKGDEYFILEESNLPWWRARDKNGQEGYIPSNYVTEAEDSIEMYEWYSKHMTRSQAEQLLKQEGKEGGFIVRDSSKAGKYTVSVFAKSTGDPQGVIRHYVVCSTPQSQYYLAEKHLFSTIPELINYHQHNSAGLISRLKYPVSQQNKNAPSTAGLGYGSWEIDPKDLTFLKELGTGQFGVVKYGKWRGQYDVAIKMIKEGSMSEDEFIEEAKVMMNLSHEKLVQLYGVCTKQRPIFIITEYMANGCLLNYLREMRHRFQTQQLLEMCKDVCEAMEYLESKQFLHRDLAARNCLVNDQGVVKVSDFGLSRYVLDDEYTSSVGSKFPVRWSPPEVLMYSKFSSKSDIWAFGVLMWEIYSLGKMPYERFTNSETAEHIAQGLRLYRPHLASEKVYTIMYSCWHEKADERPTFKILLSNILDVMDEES

SMILES	IC50
CN1CCNC(=O)C1c1ccc(Nc2ccc(-c3ccc4c(c3)c(C(=O)c3ccc(C5CC5)cc3F)cn4C)n(C)c2=O)cc1 (centres unmarked) [Example 16]	100 to 1000 nM
CN1CCN(c2ccc(Nc3cc(-c4ccc5c(c4)c(C(=O)c4ccc(C6CC6)cc4F)cn5C)cn(C)c3=O)nc2)CC1 [Example 5]	1000 to 10000 nM

Same assay, conditions: 1.0 nM BTK, 1 μM biotin-TK1 peptide, 20 μM ATP, 23° C., tested by Envision; read-out: BTK IC50

SMILES	IC50
C=CC(=O)Nc1ccc(-c2nc3cnc(Nc4ccc(OCCOC)cc4)nc3[nH]2)cc1 [Example 22]	< 100 nM
C=CC(=O)Nc1ccc2ncn(-c3ncnc(Nc4ccc(OCCOC)cc4)n3)c2c1 [Example 27]	1000 to 10000 nM
C=CC(=O)N1CCC[C@@H](n2nc(-c3ccc(Oc4ccc(F)cn4)cc3)c3c(N)n[nH]c(=O)c32)C1 [Example 44]	< 100 nM
C=CC(=O)N1CCC[C@@H](Nc2ncnc(N)c2C(=O)c2ccc(Oc3ccccc3)cc2C)C1 [Example 25]	100 to 1000 nM
C=CC(=O)N1CCCC(n2nc(-c3ccc(Oc4ccccc4C)cc3)c3c(N)n[nH]c(=O)c32)C1 (centres unmarked) [Example 54]	< 100 nM
C=CC(=O)N1CCC[C@@H](n2nc(-c3ccc(-n4cc5ccccc5n4)cc3)c3c(N)n[nH]c(=O)c32)C1 [Example 48]	< 100 nM
CN(C)C/C=C/C(=O)N1CCC[C@@H](n2nc(-c3ccc(Oc4ccccc4)cc3)c3c(N)n[nH]c(=O)c32)C1 [Example 81]	< 100 nM
C=CC(=O)Nc1ccc2ncn(-c3nc(Nc4ccc(OCCOC)cc4)ncc3F)c2c1 [Example 14]	1000 to 10000 nM
C=CC(=O)N1CCCC(n2nc(-c3ccc(Oc4ccccc4)cc3)c3cc4c(N)noc4cc32)C1 (centres unmarked) [Example 107]	1000 to 10000 nM
C=CC(=O)N1CCC[C@@H](n2nc(-c3ccc(OC4CC4)cc3)c3c(N)n[nH]c(=O)c32)C1 [Example 33]	< 100 nM
CN(C)C/C=C/C(=O)N(C)CCn1nc(-c2ccc(Oc3ccccc3)cc2)c2c(N)n[nH]c(=O)c21 [Example 34]	< 100 nM
Cc1ccn2c(=O)c(-c3cccc(-c4cc(Nc5ccc(N6CCN(C)CC6)cn5)c(=O)n(C)c4)c3C)ccc2c1 [Example 10]	1000 to 10000 nM
C=CC(=O)N1CCC[C@@H](n2nc(-c3ccc(OC4CCCC4)cc3)c3c(N)n[nH]c(=O)c32)C1 [Example 79]	< 100 nM
C=CC(=O)N1CCCC(c2c3c(=O)[nH]nc(N)c3nn2-c2ccc(Oc3ccccc3)cc2)C1 (centres unmarked) [Example 78]	100 to 1000 nM
C=CC(=O)Nc1cccc(-n2cnc3cnc(Nc4ccc(OCCOC)cc4)nc32)c1 [Example 24]	1000 to 10000 nM
C=CC(=O)N1CCC[C@@H](n2nc(-c3ccc(Oc4cccc(C)n4)cc3)c3c(N)n[nH]c(=O)c32)C1 [Example 92]	< 100 nM
C=CC(=O)N1CCC[C@@H](Nc2ncnc(N)c2C(=O)c2ccc(Oc3ccccc3)cc2F)C1 [Example 26]	1000 to 10000 nM
C=CC(=O)N1CCC[C@@H](n2nc(-c3ccc(Oc4ccc(C)cn4)cc3)c3c(N)n[nH]c(=O)c32)C1 [Example 91]	< 100 nM
C=CC(=O)N1CCC[C@@H](n2nc(-c3ccc(OC4Cc5ccccc5C4)cc3)c3c(N)n[nH]c(=O)c32)C1 [Example 74]	< 100 nM

SMILES	IC50
C=CC(=O)N1CC2(CC(n3nc(-c4ccc(Oc5ccccc5)cc4)c4c(N)n[nH]c(=O)c43)C2)C1 [Example 46]	< 100 nM
C=CC(=O)N1CCC[C@@H](n2nc(-c3ccc(Oc4ccccc4)cc3)c3c(N)n[nH]c(=O)c32)C1 [Example 28]	< 100 nM
C=CC(=O)N[C@H]1CC[C@@H](n2nc(-c3ccc(Oc4ccccn4)cc3)c3c(N)n[nH]c(=O)c32)CC1 [Example 65]	< 100 nM
C=CC(=O)N1CCC[C@@H](Nc2ncnc3[nH]cc(-c4ccccc4)c(=O)c23)C1 [Example 8]	1000 to 10000 nM
Cc1c(-c2cc(Nc3ccc(C4C(=O)NCCN4C)cc3)c(=O)n(C)c2)cccc1-c1ccc(-c2ccccc2)n(C)c1=O (centres unmarked) [Example 12]	1000 to 10000 nM
C=CC(=O)N1CCCCC(n2nc(-c3ccc(Oc4ccccc4)cc3)c3c(N)n[nH]c(=O)c32)C1 (centres unmarked) [Example 51]	< 100 nM
C=CC(=O)N1CCC[C@@H](n2nc(-c3ccc(Oc4ncccc4C)cc3)c3c(N)n[nH]c(=O)c32)C1 [Example 93]	< 100 nM
C=CC(=O)N[C@H]1CC[C@@H](n2nc(-c3ccc(Oc4ccccc4)cc3)c3c(N)n[nH]c(=O)c32)CC1 [Example 57]	< 100 nM
C=CC(=O)Nc1cccc(-n2cnc3cnc(Nc4ccc(Oc5ccccc5)cc4)nc32)c1 [Example 29]	1000 to 10000 nM
C=CC(=O)N1CC(n2nc(-c3ccc(Oc4ccccc4)cc3)c3c(N)n[nH]c(=O)c32)C1 [Example 73]	< 100 nM
C=CC(=O)N1CCC[C@@H]1Cn1nc(-c2ccc(Oc3ccccc3)cc2)c2c(N)n[nH]c(=O)c21 [Example 38]	< 100 nM
C=CS(=O)(=O)N[C@H]1CC[C@@H](n2nc(-c3ccc(Oc4ccccc4)cc3)c3c(N)n[nH]c(=O)c32)CC1 [Example 58]	< 100 nM
CN(C)C/C=C/C(=O)N1CCC[C@@H](n2nc(-c3ccc(OC4Cc5ccccc5C4)cc3)c3c(N)n[nH]c(=O)c32)C1 [Example 75]	< 100 nM
C=CC(=O)N1CCCC(n2nc(-c3ccc(Oc4ccccc4)nc3)c3c(N)n[nH]c(=O)c32)C1 (centres unmarked) [Example 72]	< 100 nM
C=CC(=O)N1CCC[C@@H](Nc2ncnc(N)c2-n2ncc3cc(Oc4ccccc4)ccc32)C1 [Example 18]	1000 to 10000 nM
C=CC(=O)NC1CCCC(n2nc(-c3ccc(Oc4ccccc4)cc3)c3c(N)n[nH]c(=O)c32)C1 (centres unmarked) [Example 62]	< 100 nM
C=CC(=O)N1CCCC(c2nc3cnc(Nc4ccc(OCCOC)cc4)nc3[nH]2)C1 (centres unmarked) [Example 21]	1000 to 10000 nM
C=CC(=O)N1CCC[C@@H](n2nc(-c3ccc(Oc4ccc(C)nn4)cc3)c3c(N)n[nH]c(=O)c32)C1 [Example 90]	100 to 1000 nM
C=CC(=O)Nc1ccc2cnn(-c3ncnc(Nc4ccc(OCCOC)cc4)n3)c2c1 [Example 15]	1000 to 10000 nM

SMILES	IC50
C=CC(=O)N1CCC[C@@H](n2nc(-c3ccc(C4OCCO4)cc3)c3c(N)n[nH]c(=O)c32)C1 [Example 49]	< 100 nM
C=CC(=O)N1CCC[C@@H](Nc2ncnc3[nH]c(=O)c(-c4ccccc4)cc23)C1 [Example 2]	1000 to 10000 nM
C=CC(=O)N1CCC[C@@H](n2nc(-c3ccc(Oc4ccccn4)cc3)c3c(N)n[nH]c(=O)c32)C1 [Example 32]	< 100 nM
N#CC(=CC1CC1)C(=O)N1CCC[C@@H](n2nc(-c3ccc(Oc4ccccc4)cc3)c3c(N)n[nH]c(=O)c32)C1 [Example 76]	< 100 nM
Cc1ccn2c(=O)c(-c3cccc(-c4cn(C)c(=O)c(Nc5ccc([C@@H]6C(=O)NCCN6C)cc5)n4)c3C)ccc2c1 [Example 11]	1000 to 10000 nM
Cc1c(-c2cc(Nc3ccc(N4CCN(C)CC4)cn3)c(=O)n(C)c2)cccc1-c1ccc(-c2ccccc2)n(C)c1=O [Example 7]	1000 to 10000 nM
C=CC(=O)N1CCC[C@@H](Nc2ncnc(N)c2-n2ncc3cc(OCCOC)ccc32)C1 [Example 19]	1000 to 10000 nM
C=CC(=O)N1CCC[C@@H](n2nc(-c3ccc4c(cnn4-c4ccccc4)c3)c3c(N)n[nH]c(=O)c32)C1 [Example 47]	1000 to 10000 nM
C=CC(=O)N1CCC[C@@H](Nc2ncnc(N)c2C(=O)c2ccc(Oc3ccccc3)cc2)C1 [Example 1]	100 to 1000 nM
C=CC(=O)N1CCCC(n2nc(-c3ccc(Oc4ccccc4)cc3)c3c(N)nn(CC)c(=O)c32)C1 (centres unmarked) [Example 86]	1000 to 10000 nM
C=CC(=O)N1CCC[C@@H](n2nc(-c3ccc(Oc4cc(C)ccn4)cc3)c3c(N)n[nH]c(=O)c32)C1 [Example 89]	< 100 nM
C=CC(=O)N1CCC[C@@H](n2nc(-c3ccc(OC4CCCCC4)cc3)c3c(N)n[nH]c(=O)c32)C1 [Example 80]	< 100 nM
CN(C)C/C=C/C(=O)N1CC[C@@H](n2nc(-c3ccc(Oc4ccccc4)cc3)c3c(N)n[nH]c(=O)c32)C1 [Example 61]	< 100 nM
C=CC(=O)N[C@H]1CC[C@@H](n2nc(-c3ccc(Oc4ccccc4F)cc3)c3c(N)n[nH]c(=O)c32)CC1 [Example 83]	< 100 nM
C=CC(=O)N1CCC[C@@H](Nc2ncnc(N)c2C(=O)c2ccc(Nc3ccccc3)cc2)C1 [Example 4]	1000 to 10000 nM
C=CC(=O)N1CCC[C@@H](n2nc(-c3ccc(OC4CC5CC5C4)cc3)c3c(N)n[nH]c(=O)c32)C1 (some centres unmarked) [Example 35]	< 100 nM
C=CC(=O)N1CCC[C@@H](n2nc(-c3ccc(C(=O)N4CCCC4)cc3)c3c(N)n[nH]c(=O)c32)C1 [Example 66]	< 100 nM
C=CC(=O)N1CCCC(n2nc(-c3ccc(Oc4ccccc4)cc3)c3c(N)nn(C)c(=O)c32)C1 (centres unmarked) [Example 85]	100 to 1000 nM
C=CC(=O)N1CCC[C@@H](n2nc(-c3ccc(-c4nc5ccccc5o4)cc3)c3c(N)n[nH]c(=O)c32)C1 [Example 88]	< 100 nM
